Source: US20110015067A1, “Herbicidal Compositions Comprising Pyroxasulfone” (BASF SE, priority 2008, published 2011)
Like-named read-outs stand apart in the source and are kept apart here.

What was measured:
Type in all cases: in vivo
[1] = system: SETFA (Setaria faberii); assay: post-emergence greenhouse test; conditions: Setaria faberi, use rate 25 g ai/ha, read-out: observed % activity
Description: (§1) For the post-emergence treatment, the test plants were first grown to a height of 3 to 20 cm, depending on the plant habit, and only then treated. Here, the herbicidal compositions were suspended or emulsified in water as distribution medium and sprayed using finely distributing nozzles.
(§2) The respective herbicides A and/or safener were formulated as 10% by weight strength suspension concentrate and introduced to the spray liquor with the amount of solvent system used for applying the active compound. Herbicide B and/or safener were used as commercially available formulations and introduced to the spray liquor with the amount of solvent system used for applying the active compound. In the examples, the solvent used was water.
(§3) The test period extended over 20 days. During this time, the plants were tended, and their response to the treatments with active compound was evaluated.
(§4) In the following experiments, the herbicidal activity for the individual herbicide compounds (solo application) and of the mixture was assessed 8 days after treatment (8 DAT) and/or 20 days after treatment (20 DAT).
(§5) The evaluation for the damage caused by the chemical compositions was carried out using a scale from 0 to 100%, compared to the untreated control plants. Here, 0 means no damage and 100 means complete destruction of the plants.

[2] = system: ECHCG (Echinochloa crus-galli); assay: post-emergence greenhouse test; conditions: use rate 6.25 g ai/ha, read-out: observed % activity
Description: as §1, §2, §3, §4, §5

[3] = system: LOLMU (Lolium multiflorum); assay: post-emergence greenhouse test; conditions: 50 g ai/ha
Description: as §1, §2, §3, §4, §5

[4] = system: MERAN (Mercurialis annua); assay: post-emergence greenhouse test; conditions: for observed activity in % destruction: 50 g ai/ha; for inhibition at 50 g/ha: Mercurialis annua, use rate 50 g ai/ha, read-out: observed % activity
Description: as §1, §2, §3, §4, §5

[5] = system: SETVI (Setaria viridis); assay: post-emergence greenhouse test; conditions: use rate 6.25 g ai/ha, read-out: observed % activity
Description: as §1, §2, §3, §4, §5

[6] = system: COMBE (Commelina benghalensis); assay: post-emergence greenhouse test; conditions: read-out: observed % activity; for inhibition at 6.25 g/ha: Table 18, use rate 6.25 g ai/ha; for inhibition at 12.5 g/ha: Table 20, use rate 12.5 g ai/ha
Description: as §1, §2, §3, §4, §5

[7] = system: CHEAL (Chenopodium album); assay: post-emergence greenhouse test; conditions: for inhibition at 6.25 g/ha / inhibition at 25 g/ha / inhibition at 50 g/ha: Chenopodium album, read-out: observed % activity; for inhibition at 6.25 g/ha: use rate 6.25 g ai/ha; for inhibition at 25 g/ha: use rate 25 g ai/ha; for inhibition at 50 g/ha: use rate 50 g ai/ha
Description: as §1, §2, §3, §4, §5

[8] = system: PANDI (Panicum dichotomiflorum); assay: post-emergence greenhouse test; conditions: use rate 25 g ai/ha, read-out: observed % activity
Description: as §1, §2, §3, §4, §5

[9] = system: AMBEL (Ambrosia artemisifolia); assay: post-emergence greenhouse test; conditions: for observed activity in % destruction: 25 g ai/ha; for inhibition at 50 g/ha: Ambrosia, use rate 50 g ai/ha, read-out: observed % activity
Description: as §1, §2, §3, §4, §5

[10] = system: BRAPL (Brachiaria plantaginea); assay: post-emergence greenhouse test; conditions: Urochloa plantaginea, read-out: observed % activity; for inhibition at 6.25 g/ha: use rate 6.25 g ai/ha; for inhibition at 12.5 g/ha: use rate 12.5 g ai/ha
Description: as §1, §2, §3, §4, §5

[11] = system: SETVI (Setaria viridis); assay: pre-emergence greenhouse test
In short: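 Herbicide A and safener were formulated as 10% by weight suspension concentrates, herbicide B as commercial product, all diluted in water and sprayed onto soil just after sowing. Percent damage compared with untreated controls was recorded 8 and/or 20 DAT.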

[12] = SETVI pre-emergence 6.25 g ai/ha
[13] = SETVI pre-emergence 12.5 g ai/ha

Question: How did the inhibition at 25 g/ha ([1]; 192 h, 8 DAT) turn out when `Cn1nc(C(F)(F)F)c(CS(=O)(=O)C2=NOC(C)(C)C2)c1OC(F)F` [pyroxasulfone, 3-[5-(difluoromethoxy)-1-methyl-3-(trifluoromethyl)pyrazol-4-ylmethylsulfonyl]-4,5-dihydro-5,5-dimethyl-1,2-oxazole] was run?
Answer: Its inhibition at 25 g/ha is 55%.

Question: What about the inhibition at 25 g/ha ([1]; 480 h, 20 DAT) of the same compound?
Answer: Its inhibition at 25 g/ha is 90%.

Question: And the inhibition at 6.25 g/ha ([2]; 192 h, 8 DAT)?
Answer: The inhibition at 6.25 g/ha was 30%.

Question: What about the inhibition at 6.25 g/ha ([2]; 480 h, 20 DAT) of the same compound?
Answer: Its inhibition at 6.25 g/ha is 80%.

Question: What about the “observed activity in % destruction” value ([3]; 8 DAT) of the same compound?
Answer: Its value is 60%.

Question: What about the “observed activity in % destruction” value ([3]; 20 DAT) of the same compound?
Answer: Its value is 80%.

Question: And the “observed activity in % destruction” value ([4]; 8 DAT)?
Answer: The value was 45%.

Question: What about the “observed activity in % destruction” value ([4]; 20 DAT) of the same compound?
Answer: The value was 85%.

Question: And the inhibition at 50 g/ha ([4]; 192 h, 8 DAT)?
Answer: The inhibition at 50 g/ha was 45%.

Question: And the inhibition at 50 g/ha ([4]; 480 h, 20 DAT)?
Answer: Its inhibition at 50 g/ha is 85%.

Question: What about the inhibition at 6.25 g/ha ([5]; 192 h, 8 DAT) of the same compound?
Answer: Its inhibition at 6.25 g/ha is 40%.

Question: What about the inhibition at 6.25 g/ha ([5]; 480 h, 20 DAT) of the same compound?
Answer: Its inhibition at 6.25 g/ha is 75%.

Question: And the inhibition at 6.25 g/ha ([6]; 192 h, 8 DAT)?
Answer: Its inhibition at 6.25 g/ha is 20%.

Question: What about the inhibition at 12.5 g/ha ([6]; 192 h, 8 DAT) of the same compound?
Answer: The inhibition at 12.5 g/ha was 30%.

Question: And the inhibition at 6.25 g/ha ([6]; 480 h, 20 DAT)?
Answer: The inhibition at 6.25 g/ha was 20%.

Question: And the inhibition at 12.5 g/ha ([6]; 480 h, 20 DAT)?
Answer: Its inhibition at 12.5 g/ha is 40%.

Question: What about the “observed activity in % destruction” value ([7]; 6.25 g ai/ha, 8 DAT) of the same compound?
Answer: Its value is 0%.

Question: What about the “observed activity in % destruction” value ([7]; 6.25 g ai/ha, 20 DAT) of the same compound?
Answer: Its value is 0%.

Question: And the “observed activity in % destruction” value ([7]; 12.5 g ai/ha, 8 DAT)?
Answer: The value was 20%.

Question: What about the “observed activity in % destruction” value ([7]; 12.5 g ai/ha, 20 DAT) of the same compound?
Answer: The value was 30%.

Question: And the “observed activity in % destruction” value ([7]; 25 g ai/ha, 8 DAT)?
Answer: The value was 35%.

Question: What about the “observed activity in % destruction” value ([7]; 25 g ai/ha, 20 DAT) of the same compound?
Answer: The value was 30%.

Question: And the “observed activity in % destruction” value ([7]; 50 g ai/ha, 8 DAT)?
Answer: Its value is 45%.

Question: And the “observed activity in % destruction” value ([7]; 50 g ai/ha, 20 DAT)?
Answer: The value was 60%.

Question: What about the inhibition at 6.25 g/ha ([7]; 192 h, 8 DAT) of the same compound?
Answer: The inhibition at 6.25 g/ha was 0%.

Question: What about the inhibition at 25 g/ha ([7]; 192 h, 8 DAT) of the same compound?
Answer: Its inhibition at 25 g/ha is 35%.

Question: What about the inhibition at 50 g/ha ([7]; 192 h, 8 DAT) of the same compound?
Answer: The inhibition at 50 g/ha was 45%.

Question: What about the inhibition at 6.25 g/ha ([7]; 480 h, 20 DAT) of the same compound?
Answer: Its inhibition at 6.25 g/ha is 0%.

Question: And the inhibition at 25 g/ha ([7]; 480 h, 20 DAT)?
Answer: The inhibition at 25 g/ha was 30%.

Question: And the inhibition at 50 g/ha ([7]; 480 h, 20 DAT)?
Answer: The inhibition at 50 g/ha was 60%.

Question: What about the inhibition at 25 g/ha ([8]; 192 h, 8 DAT) of the same compound?
Answer: Its inhibition at 25 g/ha is 60%.

Question: And the inhibition at 25 g/ha ([8]; 480 h, 20 DAT)?
Answer: Its inhibition at 25 g/ha is 85%.

Question: And the “observed activity in % destruction” value ([9]; 8 DAT)?
Answer: Its value is 50%.

Question: What about the “observed activity in % destruction” value ([9]; 20 DAT) of the same compound?
Answer: Its value is 40%.

Question: What about the inhibition at 50 g/ha ([9]; 192 h, 8 DAT) of the same compound?
Answer: Its inhibition at 50 g/ha is 50%.

Question: And the inhibition at 50 g/ha ([9]; 480 h, 20 DAT)?
Answer: The inhibition at 50 g/ha was 70%.

Question: What about the inhibition at 6.25 g/ha ([10]; 192 h, 8 DAT) of the same compound?
Answer: The inhibition at 6.25 g/ha was 20%.

Question: And the inhibition at 12.5 g/ha ([10]; 192 h, 8 DAT)?
Answer: Its inhibition at 12.5 g/ha is 30%.

Question: What about the inhibition at 6.25 g/ha ([10]; 480 h, 20 DAT) of the same compound?
Answer: Its inhibition at 6.25 g/ha is 40%.

Question: What about the inhibition at 12.5 g/ha ([10]; 480 h, 20 DAT) of the same compound?
Answer: The inhibition at 12.5 g/ha was 45%.

Question: What about the “observed % destruction 8 DAT” value [11, 12] of the same compound?
Answer: The value was 30%.

Question: And the “observed % destruction 20 DAT” value [11, 12]?
Answer: Its value is 75%.

Question: And the “observed % destruction 8 DAT” value [11, 13]?
Answer: Its value is 70%.

Question: And the “observed % destruction 20 DAT” value [11, 13]?
Answer: The value was 95%.

Question: What about the “observed % destruction 8 DAT” value ([11]; SETVI pre-emergence 25 g ai/ha) of the same compound?
Answer: The value was 80%.

Question: What about the “observed % destruction 20 DAT” value ([11]; SETVI pre-emergence 25 g ai/ha) of the same compound?
Answer: Its value is 98%.
